The numbers were not newly measured in patent publication US20040033271A1, “Methods for contemporaneous administration of levamisole and 5-fluorouracil” (priority 2003, published 2004), which cites them from elsewhere.

One data set deals with bladder cancer. The following applies: rats.
The subject of a further data set is colorectal cancer. As to conditions: added to leucovorin/5-FU regimen after surgical resection.
The conditions of data set [1]: levamisole in humans.
Data set [2] relates to breast cancer. As to conditions: post-surgical levamisole, large study.
The test system of a further data set is A375 melanoma cell line. The following applies: most sensitive cell line.
In data set [3] the test system is breast cancer. As to conditions: superimposed on CAF; no same-day 5-FU and levamisole.
Test in data set [4]: not given
The source holds these as a separate data set.

Data set [5] concerns Human colorectal cancer xenografts. As to conditions: levamisole alone.
Test in data set [6]: not given
The source holds these as a separate data set.

The conditions of data set [7]: guinea pigs.
Another data set has as its system Dukes' C. colon cancer. The following applies: levamisole alone.

Read-outs that look alike come from different tables or passages of the source.

On to `Brc1ccc([C@H]2CN3CCSC3=N2)cc1` [4-bromo analogue of levamisole, 4-bromolevamisole], for which, in the data set with phosphatases, the phosphatase inhibition entry is “capable of inhibiting phosphatases”.
Consider `Oc1ccc([C@H]2CN3CCSC3=N2)cc1` [4-hydroxy analogue of levamisole, 4-hydroxylevamisole], for which the phosphatase inhibition result in the data set with phosphatases was “capable of inhibiting phosphatases”.
Regarding `c1ccc([C@@H]2CN3CCSC3=N2)cc1` [Dexamisole], in the data set with bladder cancer, the “potentiation of BCNU compared with levamisole” value is “less active”.
Turning to `c1ccc([C@H]2CN3CCSC3=N2)cc1` [levamisole], the “time to peak plasma concentration” value (after oral levamisole administration) is 2 h. Also, the “difference between the highest and lowest AUC (area under curve)” value (twenty cancer patients, oral levamisole 50 mg t.i.d.) is on record as “seven”. For the same compound, the “effect of addition of levamisole” value in the data set with colorectal cancer was “no additive effect”. For the same compound, the serum half-life entry in [1] is “about four”. Besides, the recurrence entry with breast cancer [2] is on record as “increase in recurrence”. The “levamisole concentration affecting colony formation” value with A375 melanoma cell line (in presence of 5-FU) was 30 µg/mL; in the data set with A375 melanoma cell line (molar value in brackets), 0.125 µM. Moreover, in the data set on breast cancer [3], the “effect of added levamisole” value is listed as “modest effects over untreated historical controls”. For the same compound, the “time after administration at which cardiac effects are seen” value in data set [4] (bolus IV, stated for rats and guinea pigs together) is at most 60 s. Further, in data set [4] (rats, IV), the “IV dose at which cardiotoxicity was observed (as low as)” value is reported as 2 mg/kg. Moreover, in data set [5], the effect on xenografts result is “unaffected”. In [6] (five-fold increase in the recommended oral levamisole dose), the “adverse effect of increased oral dose” value is “severe nausea and vomiting”. Further, in data set [6] (oral t.i.d. for five days with daily 5-FU, repeated every five weeks), the maximum tolerable dose is recorded as 100 mg/m^2. Also, the “IV dose at which ECG irregularities were seen” value in [7] was 10 mg/kg. In the data set with Dukes' C. colon cancer, the clinical benefit entry is “no benefit”.
